Assay results as given in patent US20120034193A1, “TREATMENT OF NEUROTROPHIC FACTOR MEDIATED DISORDERS” (priority 2009, published 2012).
Marks after values point to notes of the source that are not given here.

Key:
[1] = molecular target: 5-Hydroxytryptamine, 5-HT1A (Homo sapiens, UniProt P08908); assay: Binding assay; conditions: smilagenin 1 μM
Procedure, shortened: (§1)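 Homogenate + radioligand (known conc.) ± compound (1 μM); free label removed, specific binding counted. Result = % inhibition vs no-compound control. Receptor source, incubation and radioligand assay-specific.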

[2] = molecular target: 5-Hydroxytryptamine, 5-HT2B (Homo sapiens, UniProt P41595); assay: Binding assay; conditions: smilagenin 1 μM
Procedure, shortened: as §1

[3] = molecular target: 5-Hydroxytryptamine, 5-HT5A (Homo sapiens, UniProt P47898); assay: Binding assay; conditions: smilagenin 1 μM
Chain of 5-Hydroxytryptamine, 5-HT5A (P47898 whole entry): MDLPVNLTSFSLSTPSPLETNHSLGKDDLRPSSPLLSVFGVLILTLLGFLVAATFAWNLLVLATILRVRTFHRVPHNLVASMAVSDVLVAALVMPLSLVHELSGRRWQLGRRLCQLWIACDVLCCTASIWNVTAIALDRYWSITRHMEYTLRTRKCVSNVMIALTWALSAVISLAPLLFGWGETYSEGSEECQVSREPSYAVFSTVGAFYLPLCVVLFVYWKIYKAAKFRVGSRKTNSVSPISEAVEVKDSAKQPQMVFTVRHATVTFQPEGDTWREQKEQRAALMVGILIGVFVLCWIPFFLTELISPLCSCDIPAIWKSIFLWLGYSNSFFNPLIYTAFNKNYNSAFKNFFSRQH
Procedure, shortened: as §1

[4] = molecular target: APJ (Homo sapiens, UniProt P35414); assay: Binding assay; conditions: smilagenin 1 μM
Procedure, shortened: as §1

[5] = molecular target: Adensonine A1 (Homo sapiens, UniProt P30542); assay: Binding assay; conditions: smilagenin 1 μM
Chain of Adensonine A1 (P30542 whole entry): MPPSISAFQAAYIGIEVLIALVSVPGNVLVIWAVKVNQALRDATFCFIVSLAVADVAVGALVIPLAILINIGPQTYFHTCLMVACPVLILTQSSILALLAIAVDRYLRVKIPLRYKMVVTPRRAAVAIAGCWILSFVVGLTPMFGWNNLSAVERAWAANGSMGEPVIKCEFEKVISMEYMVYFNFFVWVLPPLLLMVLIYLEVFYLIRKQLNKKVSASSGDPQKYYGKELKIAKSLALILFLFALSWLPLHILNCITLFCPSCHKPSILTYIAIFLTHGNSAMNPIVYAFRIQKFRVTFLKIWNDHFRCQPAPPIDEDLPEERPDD
Procedure, shortened: as §1

[6] = molecular target: Aldosterone (Rattus norvegicus, UniProt P22199); assay: Binding assay; conditions: smilagenin 1 μM
Procedure, shortened: as §1

[7] = molecular target: Chemokine CCR2B (Homo sapiens, UniProt P41597); assay: Binding assay; conditions: smilagenin 1 μM
Chain of Chemokine CCR2B (P41597 1-360 isoform P41597-2): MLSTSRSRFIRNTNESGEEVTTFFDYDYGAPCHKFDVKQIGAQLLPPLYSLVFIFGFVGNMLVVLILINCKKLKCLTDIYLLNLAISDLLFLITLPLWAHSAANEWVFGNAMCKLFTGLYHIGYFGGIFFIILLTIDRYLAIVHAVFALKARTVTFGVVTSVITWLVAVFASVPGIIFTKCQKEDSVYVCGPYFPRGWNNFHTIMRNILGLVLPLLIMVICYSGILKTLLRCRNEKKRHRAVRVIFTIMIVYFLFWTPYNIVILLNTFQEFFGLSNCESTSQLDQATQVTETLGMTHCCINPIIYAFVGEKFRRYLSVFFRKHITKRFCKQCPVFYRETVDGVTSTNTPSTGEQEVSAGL
Procedure, shortened: as §1

[8] = molecular target: Chemokine CXCR1 (IL-8RB) (Homo sapiens, UniProt P25025); assay: Binding assay; conditions: smilagenin 1 μM
Procedure, shortened: as §1

[9] = molecular target: T1, Erythropoietin EPOR (Homo sapiens, UniProt P19235); assay: Binding assay; conditions: smilagenin 1 μM
T1 construct: host or cells: tissue or cell homogenate (not specified)
T1 sequence (P19235 25-508): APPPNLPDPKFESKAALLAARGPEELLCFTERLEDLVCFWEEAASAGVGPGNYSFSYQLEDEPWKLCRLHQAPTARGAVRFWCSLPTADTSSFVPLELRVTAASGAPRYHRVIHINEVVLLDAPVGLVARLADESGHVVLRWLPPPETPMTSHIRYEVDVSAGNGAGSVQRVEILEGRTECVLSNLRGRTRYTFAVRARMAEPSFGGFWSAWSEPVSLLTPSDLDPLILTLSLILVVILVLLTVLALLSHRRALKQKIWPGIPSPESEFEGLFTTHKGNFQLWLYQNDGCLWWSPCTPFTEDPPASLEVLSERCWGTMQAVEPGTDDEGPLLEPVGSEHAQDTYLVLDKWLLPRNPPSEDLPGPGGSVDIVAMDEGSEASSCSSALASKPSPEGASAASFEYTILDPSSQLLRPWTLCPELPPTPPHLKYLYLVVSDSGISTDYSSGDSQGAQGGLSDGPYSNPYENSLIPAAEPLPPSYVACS
Procedure, shortened: as §1

[10] = molecular target: T2, Histamine H2 (Homo sapiens, UniProt P25021); assay: Binding assay; conditions: smilagenin 1 μM
T2 construct: host or cells: tissue or cell homogenate (not specified)
T2 sequence (P25021 whole entry): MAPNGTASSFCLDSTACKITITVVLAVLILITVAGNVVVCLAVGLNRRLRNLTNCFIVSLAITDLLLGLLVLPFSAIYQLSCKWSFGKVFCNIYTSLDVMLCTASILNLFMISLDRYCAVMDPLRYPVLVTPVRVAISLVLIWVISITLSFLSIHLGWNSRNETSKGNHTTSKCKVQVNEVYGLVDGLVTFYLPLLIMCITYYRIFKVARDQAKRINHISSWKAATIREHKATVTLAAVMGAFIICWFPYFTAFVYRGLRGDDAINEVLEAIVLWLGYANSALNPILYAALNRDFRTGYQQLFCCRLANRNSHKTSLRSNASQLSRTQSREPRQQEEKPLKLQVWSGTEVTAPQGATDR
Procedure, shortened: as §1

[11] = molecular target: Insulin (Rattus norvegicus, UniProt P15127); assay: Binding assay; conditions: smilagenin 1 μM
Procedure, shortened: as §1

[12] = molecular target: Melatonin MT1 (Homo sapiens, UniProt P48039); assay: Binding assay; conditions: smilagenin 1 μM
Procedure, shortened: as §1

[13] = molecular target: Neuropeptide Y Y2 (Homo sapiens, UniProt P49146); assay: Binding assay; conditions: smilagenin 1 μM
Chain of Neuropeptide Y Y2 (P49146 whole entry): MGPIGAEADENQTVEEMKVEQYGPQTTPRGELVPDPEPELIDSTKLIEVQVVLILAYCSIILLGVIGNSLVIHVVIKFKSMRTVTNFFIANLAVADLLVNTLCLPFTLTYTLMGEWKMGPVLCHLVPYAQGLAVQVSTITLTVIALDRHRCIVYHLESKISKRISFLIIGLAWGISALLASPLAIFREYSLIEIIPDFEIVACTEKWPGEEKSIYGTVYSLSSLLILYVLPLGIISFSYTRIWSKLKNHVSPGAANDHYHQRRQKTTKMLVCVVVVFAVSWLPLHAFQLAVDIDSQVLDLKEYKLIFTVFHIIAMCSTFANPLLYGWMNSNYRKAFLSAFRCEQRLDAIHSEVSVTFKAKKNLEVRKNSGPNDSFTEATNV
Procedure, shortened: as §1

[14] = molecular target: T3, Oestrogen (ERα) (Homo sapiens, UniProt P03372); assay: Binding assay; conditions: smilagenin 1 μM
T3 construct: host or cells: tissue or cell homogenate (not specified)
T3 sequence (P03372 whole entry): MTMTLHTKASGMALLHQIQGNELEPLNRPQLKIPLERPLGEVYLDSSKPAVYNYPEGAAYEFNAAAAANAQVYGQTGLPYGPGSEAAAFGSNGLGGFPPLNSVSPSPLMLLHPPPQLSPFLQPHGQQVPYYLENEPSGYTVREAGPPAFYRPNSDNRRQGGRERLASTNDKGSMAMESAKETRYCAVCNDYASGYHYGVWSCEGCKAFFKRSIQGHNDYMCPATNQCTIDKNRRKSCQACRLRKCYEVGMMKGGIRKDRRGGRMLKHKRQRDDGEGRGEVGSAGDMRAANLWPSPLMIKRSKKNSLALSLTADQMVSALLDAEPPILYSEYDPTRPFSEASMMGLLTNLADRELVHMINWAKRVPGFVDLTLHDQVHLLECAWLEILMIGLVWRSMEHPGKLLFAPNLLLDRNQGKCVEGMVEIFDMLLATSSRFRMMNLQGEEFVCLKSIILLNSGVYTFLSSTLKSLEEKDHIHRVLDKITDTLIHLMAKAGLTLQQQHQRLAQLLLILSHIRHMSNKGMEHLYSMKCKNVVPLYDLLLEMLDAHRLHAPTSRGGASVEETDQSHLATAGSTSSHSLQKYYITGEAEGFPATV
Procedure, shortened: as §1

[15] = molecular target: T4, Oestrogen (Erβ) (Homo sapiens, UniProt Q92731); assay: Binding assay; conditions: smilagenin 1 μM
T4 construct: host or cells: tissue or cell homogenate (not specified)
Procedure, shortened: as §1

[16] = molecular target: Platelet Activating Factor (PAF) (Homo sapiens, UniProt P25105); assay: Binding assay; conditions: smilagenin 1 μM
Chain of Platelet Activating Factor (PAF) (P25105 whole entry): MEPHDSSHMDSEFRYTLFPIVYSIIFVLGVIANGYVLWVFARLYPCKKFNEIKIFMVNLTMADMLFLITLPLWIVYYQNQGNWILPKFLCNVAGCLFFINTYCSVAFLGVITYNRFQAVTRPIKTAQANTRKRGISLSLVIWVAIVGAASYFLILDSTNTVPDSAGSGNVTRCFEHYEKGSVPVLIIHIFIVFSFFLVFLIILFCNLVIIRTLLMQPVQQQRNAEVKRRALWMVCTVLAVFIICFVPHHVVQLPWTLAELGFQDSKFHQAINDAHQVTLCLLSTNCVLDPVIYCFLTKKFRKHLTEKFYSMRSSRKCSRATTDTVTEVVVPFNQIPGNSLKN
Procedure, shortened: as §1

[17] = system: Purinergic P2X; assay: Binding assay; conditions: smilagenin 1 μM
Procedure, shortened: as §1

[18] = molecular target: T5, Transporter, Norepinephrine (NET) (Homo sapiens, UniProt P23975); assay: Binding assay; conditions: smilagenin 1 μM
T5 construct: host or cells: tissue or cell homogenate, not specified
T5 sequence (P23975 whole entry): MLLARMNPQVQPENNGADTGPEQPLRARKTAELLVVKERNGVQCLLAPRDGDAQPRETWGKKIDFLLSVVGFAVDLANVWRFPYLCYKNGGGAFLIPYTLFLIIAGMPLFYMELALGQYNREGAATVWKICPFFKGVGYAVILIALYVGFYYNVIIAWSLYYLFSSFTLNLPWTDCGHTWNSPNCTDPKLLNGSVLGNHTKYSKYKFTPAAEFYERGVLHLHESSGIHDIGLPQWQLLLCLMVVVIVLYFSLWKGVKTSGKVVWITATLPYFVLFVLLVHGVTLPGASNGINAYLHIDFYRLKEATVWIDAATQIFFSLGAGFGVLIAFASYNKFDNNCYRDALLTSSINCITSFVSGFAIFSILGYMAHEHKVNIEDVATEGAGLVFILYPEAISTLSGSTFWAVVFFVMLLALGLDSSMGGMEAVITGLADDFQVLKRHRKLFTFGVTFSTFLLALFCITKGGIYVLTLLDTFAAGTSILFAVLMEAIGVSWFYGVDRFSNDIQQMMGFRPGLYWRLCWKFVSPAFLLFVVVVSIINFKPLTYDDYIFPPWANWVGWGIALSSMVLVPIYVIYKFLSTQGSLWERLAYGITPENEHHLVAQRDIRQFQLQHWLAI
Procedure, shortened: as §1

[19] = molecular target: T6, Vasopressin V1A (Homo sapiens, UniProt P37288); assay: Binding assay; conditions: smilagenin 1 μM
T6 construct: host or cells: tissue or cell homogenate, not specified
T6 sequence (P37288 whole entry): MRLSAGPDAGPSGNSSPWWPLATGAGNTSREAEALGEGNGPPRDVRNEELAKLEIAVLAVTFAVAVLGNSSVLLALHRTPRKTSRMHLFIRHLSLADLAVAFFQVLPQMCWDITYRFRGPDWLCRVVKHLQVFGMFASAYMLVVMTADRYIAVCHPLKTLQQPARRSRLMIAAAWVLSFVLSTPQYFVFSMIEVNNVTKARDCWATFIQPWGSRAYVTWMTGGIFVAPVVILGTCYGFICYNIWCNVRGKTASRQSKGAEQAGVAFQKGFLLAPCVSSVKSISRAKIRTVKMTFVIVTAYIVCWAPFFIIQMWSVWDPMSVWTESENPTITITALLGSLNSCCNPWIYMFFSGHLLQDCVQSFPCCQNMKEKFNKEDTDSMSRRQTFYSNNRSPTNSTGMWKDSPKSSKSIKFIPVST
Procedure, shortened: as §1

[20] = system: Chemokine CXCR1; assay: Binding assay; parameters: species or system Human; conditions: smilagenin 1 μM
Protocol: (§2) The receptor binding was investigated using the following method: Sarsasapogenin was incubated with tissue or cell homogenate that expressed the receptor of interest and a known concentration a radiolabelled compound with affinity for the receptor of interest. After the incubation period the non-bound radiolabelled compound was removed and the amount of specific binding was quantified. The amount of specific binding in the presence and absence of sarsasapogenin were compared and the percent inhibition of the binding of the radiolabelled compound by sarsasapogenin was calculated. The source of the receptor, the incubation conditions, the radiolabelled compound used varied depending on each specific assay.
(§3) Using the same methods as described above, the binding of smilagenin (1 μM) to the receptors listed in Table 2 below, and the effect of smilagenin on the activity of the enzymes listed in Table 2 below, were investigated.

[21] = system: Tumour Necrosis Factor (TNF), non-selective; assay: Binding assay; parameters: species or system Human; conditions: smilagenin 1 μM
Protocol: as §2, §3

[22] = system: BDNF mRNA; assay: BDNF mRNA in rat cortical neurones pre-incubated 48 h then exposed to β-amyloid; assay type: cell-based; conditions: 10 μM pre-incubation 48 h
Protocol: Rat cortical neurones were cultured by modification of a method previously described (Eckenstein and Sofroniew, Journal of Neuroscience, 1983, 3, pp. 2286-2291). On day 8, the culture medium was changed to a medium containing vehicle (DMSO, 0.5%) or smilagenin (10 μM). On day 10, rat primary cortical neurones were exposed to β-amyloid (10 μg/ml) for up to 48 h at 37° C. and the level of BDNF mRNA in the cortical neurones was assessed by rt RT-PCR over the following 48 h.

[23] = system: dopamine transporter (DAT); assay: Striatal DAT level in control and MPTP mice, 61 or 71 days of dosing; assay type: in vivo, C57 mice; conditions: 10 mg/kg/day oral
Protocol: In a similar experiment, 10-week old male C57 mice received daily injections of saline or MPTP (25 mg/kg/day, i.p.) for 5 consecutive days (days 1-5) and oral administration of smilagenin (10 mg/kg/day) or vehicle (HPMC 0.5% w/v containing tween-80 0.2% v/v) for 61 days (days […]) or 71 days (days 2-72) after which time their brains were removed for quantification of striatal levels of DAT, marker of the extent of neuronal damage to dopaminergic neurones

[24] = system: MPTP-lesioned macaques; assay: Parkinsonian disability in MPTP-lesioned macaques; assay type: in vivo, Macaca fascicularis
Protocol: Nineteen female cynomolgus monkeys (Macaca fascicularis, 3.0-4.5 kg, 4-6 years old) were acclimatised to the experimental setting and procedures for 3 months and baseline behaviour was assessed in all animals. Fourteen female macaques received MPTP (0.2 mg/kg/day, s.c.) until marked, stable, parkinsonian symptoms developed. Animals (n=7/group) were randomly assigned to two groups; smilagenin (20 mg/kg/day, p.o.) or vehicle control (HPMC, 0.5% w/v containing Tween 80, 0.2% v/v).
Assessments of parkinsonian disability were made after MPTP administration and following 18 weeks of smilagenin or vehicle administration. Parkinsonian disability was evaluated by post hoc analysis of DVD-recordings by a neurologist blinded to the treatment. At the end of the study the brains were removed and the levels of unbound GDNF and BDNF in the putamen were measured using Multiplex ELISA/Aushon assays. The MPTP treated macaques used in this experiment thus provide an accepted model for Parkinson's disease and similar motor-sensory neurodegenerative conditions.

Chain of 5-Hydroxytryptamine, 5-HT1A (P08908 whole entry): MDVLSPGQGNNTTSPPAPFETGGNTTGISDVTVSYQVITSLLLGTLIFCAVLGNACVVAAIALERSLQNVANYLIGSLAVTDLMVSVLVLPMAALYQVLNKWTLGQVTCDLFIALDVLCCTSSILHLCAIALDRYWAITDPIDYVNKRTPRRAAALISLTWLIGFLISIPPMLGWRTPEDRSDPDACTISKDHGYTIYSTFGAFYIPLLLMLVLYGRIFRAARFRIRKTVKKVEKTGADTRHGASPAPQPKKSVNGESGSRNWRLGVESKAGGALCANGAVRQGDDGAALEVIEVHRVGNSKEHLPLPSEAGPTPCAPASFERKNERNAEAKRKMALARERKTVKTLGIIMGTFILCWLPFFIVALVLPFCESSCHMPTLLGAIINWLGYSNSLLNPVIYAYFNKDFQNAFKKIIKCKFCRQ

For `C[C@@H]1CC[C@@]2(OC1)O[C@H]1C[C@H]3[C@@H]4CC[C@@H]5C[C@@H](O)CC[C@]5(C)[C@H]4CC[C@]3(C)[C@H]1[C@@H]2C` [Smilagenin, smilagenin], the “Effect (%)” value [1] was “NS (NS = No significant response. Significance was taken as ≧30% stimulation or inhibition)”, the “Effect (%)” value [2] was “NS (NS = No significant response. Significance was taken as ≧30% stimulation or inhibition)” and the “Effect (%)” value [3] was “NS (NS = No significant response. Significance was taken as ≧30% stimulation or inhibition)”. The “Effect (%)” value [4] was “NS (NS = No significant response. Significance was taken as ≧30% stimulation or inhibition)”, the “Effect (%)” value [5] was “NS (NS = No significant response. Significance was taken as ≧30% stimulation or inhibition)” and the “Effect (%)” value [6] was “NS (NS = No significant response. Significance was taken as ≧30% stimulation or inhibition)”. For the same molecule, the “Effect (%)” value [7] was “NS (NS = No significant response. Significance was taken as ≧30% stimulation or inhibition)”, the “Effect (%)” value [8] was “NS (NS = No significant response. Significance was taken as ≧30% stimulation or inhibition)” and the “Effect (%)” value [9] was “NS (NS = No significant response. Significance was taken as ≧30% stimulation or inhibition)”. The “Effect (%)” value [10] was “NS (NS = No significant response. Significance was taken as ≧30% stimulation or inhibition)”, the “Effect (%)” value [11] was “NS (NS = No significant response. Significance was taken as ≧30% stimulation or inhibition)” and the “Effect (%)” value [12] was “NS (NS = No significant response. Significance was taken as ≧30% stimulation or inhibition)”. The “Effect (%)” value [13] was “NS (NS = No significant response. Significance was taken as ≧30% stimulation or inhibition)”, the “Effect (%)” value [14] was “NS (NS = No significant response. Significance was taken as ≧30% stimulation or inhibition)” and the “Effect (%)” value [15] was “NS (NS = No significant response. Significance was taken as ≧30% stimulation or inhibition)”. The “Effect (%)” value [16] was “NS (NS = No significant response. Significance was taken as ≧30% stimulation or inhibition)”, the “Effect (%)” value [17] was “NS (NS = No significant response. Significance was taken as ≧30% stimulation or inhibition)” and the “Effect (%)” value [18] was “NS (NS = No significant response. Significance was taken as ≧30% stimulation or inhibition)”. The “Effect (%)” value [19] was “NS (NS = No significant response. Significance was taken as ≧30% stimulation or inhibition)”, the “Effect (%)” value [20] was “NS (NS = No significant response. Significance was taken as ≧30% stimulation or inhibition)” and the “Effect (%)” value [21] was “NS (NS = No significant response. Significance was taken as ≧30% stimulation or inhibition)”. The “Relative amount of BDNF mRNA (% of control at 0 h)” value ([22]; β-amyloid 10 μg/ml exposure 6 h) was 108.0 ± 5.2 % of control at 0 h, the “Relative amount of BDNF mRNA (% of control at 0 h)” value ([22]; β-amyloid 10 μg/ml exposure 24 h) was 321.5 ± 54.2 % of control at 0 h and the “Relative amount of BDNF mRNA (% of control at 0 h)” value ([22]; β-amyloid 10 μg/ml exposure 48 h) was 334.6 ± 48.1 % of control at 0 h. For the same molecule, the “DAT level ([I^125]-RTI binding in the striatum; nCi/g protein)” value (“DAT level” for short) ([23]; MPTP mice, days 2-72) was 256.2 ± 21.4^++++ nCi/g protein, the “DAT level” value ([23]; MPTP mice, days 12-72) was 280.3 ± 18.3^++++ nCi/g protein and the “DAT level” value ([23]; control mice (no MPTP), days 2-72) was 406.2 ± 21.8 nCi/g protein. For the same molecule, the “Median parkinsonian disability post-MPTP administration” value ([24]; baseline of the smilagenin group, before dosing) was 47.17 and the “Median parkinsonian disability at week 18” value ([24]; smilagenin 20 mg/kg/day p.o., 18 weeks, MPTP vehicle group 41.67) was 27.00^###.
